Values of other authors in patent US20190255075A1, “TREATMENT OF PROSTATE CANCER” (priority 2018, published 2019).

Key:
[1] = tested on: prostate cancer cells; conditions: sirolimus used alone
[2] = tested on: hormone refractory prostate cancer; conditions: single agent

SMILES: CO[C@H]1C[C@@H]2CC[C@@H](C)[C@@](O)(O2)C(=O)C(=O)N2CCCC[C@H]2C(=O)O[C@H]([C@H](C)C[C@@H]2CC[C@@H](O)[C@H](OC)C2)CC(=O)[C@H](C)/C=C(\C)[C@@H](O)[C@@H](OC)C(=O)[C@H](C)C[C@H](C)/C=C/C=C/C=C/1C [Sirolimus, sirolimus]
- effect on prostate cancer cells [1]: limited effects
- patients with positive outcomes ([2]; of twelve evaluable patients with hormone refractory prostate cancer): two
- decrease in PSA ([2]; one of the two responding patients, with partial radiographic response): 50%
